Data on one molecule can be found in US12383527B2, “Methods for treating triple negative breast cancer using salvianolic acid B” (HOWARD UNIVERSITY, priority 2018, dated 2025).

Assay [1] concerns MDA tumor xenografts. Put plainly: Human tumor xenografts in athymic nude mice, tumor weight. Format: in vivo. Conditions: doxorubicin 4 mg/kg every four weeks, intraperitoneal; day 37; mean±SD; untreated control 0.81±0.12 g. The method, then: Human tumor xenografts in athymic nude mice. […] The animal protocol was approved by the Howard University Animal Care and Use Committee. Four-week-old female athymic nude mice (Nu/Nu) were obtained from Harlan Sprague Dawley (Indianapolis, IN). All mice were provided the Harlan Teklad #2018 Global 18% protein rodent diet and water ad libitum. Mice were housed in temperature-controlled rooms (74±2° F.) with a 12-hour alternating light-dark cycle. MDA cells (3×10^6/50 μL/spot) were subcutaneously injected into the both sides of lower back of mice using a 27-gauge needle. On day 10 after cell implantation, the mice with tumors (˜5 mm in diameter) were randomly divided into Sal-B treated, doxorubicin treated, and untreated groups (five mice per group), and were administrated Sal-B (80 mg/kg, three times per week), doxorubicin (4 mg/kg, every four weeks) and 0.9% saline (50 μl, three times per week), respectively, by intraperitoneal injection for a total of 37 days. […] All mice were sacrificed on day 37.

A further assay concerns cyclin A. The assay can be described thus: Western blot of cyclin A expression in MDA and MCF-7 cells. The format is cell-based, human. Conditions: doxorubicin 1 μM, 24 hours. The method, then:
(§1) The expression of two cell cycle-related proteins—cyclin A and cyclin B1—was checked by Western blot. The expression of cyclin A and cyclin B1 was normalized by the expression of the internal control β-actin (lower panel). The cells were treated with 50 μM and 100 μM Sal-B, respectively, for 24 hours. Doxorubicin (0.1 μM and 1 μM) was used as a control. […] The results may be explained by that the cell cycle progression is controlled by a large set of molecules, although cyclin B1 is a key component in the control of cell cycle progression from G2 to M phase.
The immunohistochemical results were consistent with those from Western blotting (FIG. 7, panel A). Western blot analysis was used to determine the expression of apoptosis-related proteins Bcl-XL, survivin, caspase-3 and caspase-8 (FIG. 7, panel A). β-actin was used as an internal control for Western blotting. The MCD-7 and MDA cells were treated with Sal-B (50 μM and 100 μM) and doxorubicin (0.1 μM and 1 μM), respectively, for 24 hours. Proteins were extracted from the cells with RIPA lysis buffer (Santa Cruz Biotechnology, Santa Cruz, CA) and the protein concentrations were quantified with Bio-Rad protein quantification kit. Whole-cell proteins were separated on 8% SDS-polyacrylamide gel, transferred to the polyvinylidene difluoride membrane (Bio-Rad), and then probed with the indicated primary antibodies overnight at 4° C. […]

For another assay, the system named is cyclin B1. Put plainly: Western blot of cyclin B1 expression in MDA and MCF-7 cells. Format: cell-based, human. To be noted: doxorubicin 1 μM, 24 hours. The method, then:
as §1
(§2) The immunohistochemical results were consistent with those from Western blotting (FIG. 7, panel A). Western blot analysis was used to determine the expression of apoptosis-related proteins Bcl-XL, survivin, caspase-3 and caspase-8 (FIG. 7, panel A). β-actin was used as an internal control for Western blotting. The MCD-7 and MDA cells were treated with Sal-B (50 μM and 100 μM) and doxorubicin (0.1 μM and 1 μM), respectively, for 24 hours. Proteins were extracted from the cells with RIPA lysis buffer (Santa Cruz Biotechnology, Santa Cruz, CA) and the protein concentrations were quantified with Bio-Rad protein quantification kit. Whole-cell proteins were separated on 8% SDS-polyacrylamide gel, transferred to the polyvinylidene difluoride membrane (Bio-Rad), and then probed with the indicated primary antibodies overnight at 4° C. Washed blots were then incubated with horseradish peroxidase-conjugated anti-rabbit, anti-mouse, or anti-goat antibody (Santa Cruz Biotechnology), respectively, for one hour at room temperature. Blots were developed and visualized with ECL detection system (Bio-Rad).

Another assay deals with ER-α. The assay can be described thus: Western blot of ER-α expression in MCF-7 cells. Conditions: doxorubicin at the high dose (1 μM). Format: cell-based, human.
Assay [2] has as its system survivin. The assay can be described thus: Immunohistochemical staining of survivin in MDA tumor xenografts. The format is in vivo, athymic nude mice. To be noted: doxorubicin 4 mg/kg every four weeks; versus untreated group. The method, then:
(§3) Human tumor xenografts in athymic nude mice. […] The animal protocol was approved by the Howard University Animal Care and Use Committee. Four-week-old female athymic nude mice (Nu/Nu) were obtained from Harlan Sprague Dawley (Indianapolis, IN). All mice were provided the Harlan Teklad #2018 Global 18% protein rodent diet and water ad libitum. Mice were housed in temperature-controlled rooms (74±2° F.) with a 12-hour alternating light-dark cycle. MDA cells (3×10^6/50 μL/spot) were subcutaneously injected into the both sides of lower back of mice using a 27-gauge needle. […]
(§4) Immunohistochemical staining was performed as described previously (Hao Y, et al., “Enforced expression of miR-101 inhibits prostate cancer cell growth by modulating the COX-2 pathway in vivo,” Cancer Prev Res (Phila), 2011; 4: 1073-1083). […] For the quantification, ten high-magnification (40×) fields were randomly selected from each slide of tumors and the positive cells were counted. The protein expression was expressed as the average number of positive cells per high magnification field.

A further assay has as its system MCF-7 cells. Put plainly: Luciferase assay (bioluminescent cell viability). Conditions: 24 hours. The format is cell-based, human. The method, then: (§5) Cell lines and culture. MCF-7 and MDA human breast cancer cell lines stably transfected with firefly luciferase gene were purchased from Caliper Life Sciences (Hanover, MD). MCF-7 cells were cultured in DMEM medium (Invitrogen, Carlsbad, CA) and MDA cells were grown in DMEM/F-12 (1:1) medium (Invitrogen). Both media were supplemented with 10% fetal bovine serum (Invitrogen) and antibiotic-antimycotic mixture (100 IU/ml penicillin and 100 μg/ml streptomycin; Cellgro). The cells were maintained at 37° C. in 5% CO2. All experiments were performed when the cells were in the logarithmic phase of growth. Luciferase assay. The MDA cell line and the hormone receptor-positive MCF-7 cell line were utilized to test the effectiveness of Sal-B and doxorubicin on cancer cell viability. Both cell lines had been stably transfected and expressed the firefly luciferase gene. The bioluminescent signal intensity reflects the cell metabolic activity, being highly correlated with the cell viability. Cell viability was evaluated using the sensitive bioluminescent optical imaging. The cells (10,000 per well) were seeded in flat-bottomed 96-well plates in the above-identified medium with 10% fetal bovine serum and allowed to grow overnight. The old medium was then replaced with fresh medium containing different concentrations of Sal-B (50, 100, 150, and 200 μM) or doxorubicin (0.1, 0.2, 0.5, and 1 μM). The cells were further cultured for 24 hours and D-luciferin was added to each well and mixed gently (final concentration of 150 μ/ml). The signal was measured with the Xenogen IVIS 200 imaging system (Caliper Life Sciences, Hopkinton, MA, USA). The system was equipped with a highly sensitive, cooled charge-coupled device (CCD) camera and a light-tight specimen box. Imaging and quantification of signals was controlled by the acquisition and analysis software Living Image 3.0. The bioluminescent signal from the cells in each well was expressed as total flux (photons per second (p/s)). At least five replicates were performed in each experiment, and each experiment was repeated at least three times. The representative data are presented.

The test system of a further assay is MDA-MB-231 cells. The assay can be described thus: Luciferase assay (bioluminescent cell viability). Format: cell-based, human. Conditions: MDA cells, 24 hours. The method, then:
as §5

Assay [3] relates to survivin. Put plainly: Western blot of survivin expression in MDA and MCF-7 cells. The format is cell-based, human. To be noted: doxorubicin 0.1 μM and 1 μM, 24 hours. The method, then: as §2
The subject of assay [4] is proliferating cell nuclear antigen (PCNA). The assay can be described thus: Immunohistochemical staining of PCNA in MDA tumor xenografts. Format: in vivo, athymic nude mice. To be noted: doxorubicin 4 mg/kg every four weeks; versus untreated; P<0.05. The method, then:
as §3, §4

Assay [5] concerns Bcl-xL. Put plainly: Western blot of Bcl-xL expression in MDA and MCF-7 cells. The format is cell-based, human. To be noted: doxorubicin 0.1 μM and 1 μM, 24 hours. The method, then: as §2
The subject of another assay is ceramides. Put plainly: Immunohistochemistry of ceramides in MDA tumor xenografts. Format: in vivo, athymic nude mice. To be noted: doxorubicin 4 mg/kg every four weeks; untreated control 2.3±0.7; P<0.05. The method, then: as §3
Immunohistochemical staining was performed as described previously (Hao Y, et al., “Enforced expression of miR-101 inhibits prostate cancer cell growth by modulating the COX-2 pathway in vivo,” Cancer Prev Res (Phila), 2011; 4: 1073-1083). […] For the quantification, ten high-magnification (40×) fields were randomly selected from each slide of tumors and the positive cells were counted. The protein expression was expressed as the average number of positive cells per high magnification field. […]

In assay [6] the test system is Bcl-xL. Put plainly: Immunohistochemical staining of Bcl-xL in MDA tumor xenografts. Conditions: doxorubicin 4 mg/kg every four weeks; versus untreated tumors; P<0.05. Format: in vivo, athymic nude mice. The method, then:
as §3, §4

Assay [7] deals with MDA tumor xenografts. The assay can be described thus: TUNEL assay of apoptotic cells in MDA tumor xenografts. To be noted: doxorubicin 4 mg/kg every four weeks; untreated tumors 3.1±1.8; P<0.05. The format is in vivo, athymic nude mice. The method, then:
as §3
Apoptotic cells in MDA tumor xenografts were also analyzed by a terminal deoxynucleotidyl transferase-mediated dUTP nick end labeling (TUNEL) assay using the TdT-FragEL DNA Fragmentation Detection Kit (EMD Millipore, Burlington, MA) as previously described (Li H, et al., “Cellular uptake and anticancer activity of salvianolic acid B phospholipid complex loaded nanoparticles in head and neck cancer and precancer cells,” Colloids Surf B Biointerfaces. 2016; 147: 65-72). […]

Take `COc1cccc2c1C(=O)c1c(O)c3c(c(O)c1C2=O)C[C@@](O)(C(=O)CO)C[C@@H]3O[C@H]1C[C@H](N)[C@H](O)[C@H](C)O1` [doxorubicin, reference compound]: in the assay on MDA tumor xenografts [1], the average tumor weight is 0.34 ± 0.09 g. For the same molecule, the “cyclin A expression (normalized to β-actin)” value in the assay with cyclin A (MCF-7 cells) and in the assay with cyclin A (MDA cells) was “reduction” each time. The “cyclin B1 expression (normalized to β-actin)” value with cyclin B1 (MCF-7 cells) and in the assay with cyclin B1 (MDA cells) was “reduction” each time. Moreover, the “ER-α protein level (normalized to β-actin)” value in the assay on ER-α is listed as “decreased”. Moreover, the “survivin level in tumors” value with survivin [2] is recorded as “decreasing”. Also, the cytotoxicity at 0.5 µM was about 67% in the assay with MCF-7 cells (Homo sapiens, MCF7, MCF-7 cells, doxorubicin 0.5 μM, read-out: reduction of cell viability) and 25% in the assay with MDA-MB-231 cells (Homo sapiens, MDA-MB-231, doxorubicin 0.5 μM, read-out: reduction of cell viability). The “further reduction of cell viability versus 0.5 μM” value in the assay on MCF-7 cells (MCF-7 cells, doxorubicin 1 μM) was “No further reduction”; with MDA-MB-231 cells (doxorubicin 1 μM) it was “No further reduction”. Also, the “effect on cell viability, MCF-7 cells relative to MDA cells” value in the assay on MCF-7 cells (doxorubicin 1 μM) was “approximately two-fold”. The survivin protein expression result with survivin [3] (MCF-7 cells) and in the assay with survivin [3] (MDA cells) was “downregulated” in each case. Also, the “PCNA levels in tumor xenografts” value in [4] was “higher in untreated MDA tumor xenografts”. Moreover, the Bcl-xL protein expression entry in the assay on Bcl-xL [5] (MCF-7 cells) and with Bcl-xL [5] (MDA cells) was “downregulated” each time. Moreover, the “ceramide levels in tumor xenografts (ceramide positive cells counted)” value in the assay with ceramides is listed as 6.2±1.3. Further, the “expression of Bcl-xL in tumors” value in the assay on Bcl-xL [6] is “decreased expression”. Further, the “number of apoptotic cells (TUNEL)” value with MDA tumor xenografts [7] is on record as 9.0±2.1.
